Test results taken from patent US12509444B2, “Compounds and methods for CD73 modulation and indications therefor” (Plexxikon Inc., priority 2019, dated 2025).

How the values were obtained:
[1] = target: T1, Human CD73 (amino acid residues 27-549) (Homo sapiens, UniProt P21589); test: CD73 enzymatic assay (luciferase-based indirect assay, CellTiter-Glo); format: biochemical; conditions: 0.4 nM CD73, 150 μM AMP, 1 hour at room temperature
T1 construct: Human CD73 (amino acid residues 27-549); His tag (N); made in house; host or cells: E. coli
T1 sequence (P21589 27-549): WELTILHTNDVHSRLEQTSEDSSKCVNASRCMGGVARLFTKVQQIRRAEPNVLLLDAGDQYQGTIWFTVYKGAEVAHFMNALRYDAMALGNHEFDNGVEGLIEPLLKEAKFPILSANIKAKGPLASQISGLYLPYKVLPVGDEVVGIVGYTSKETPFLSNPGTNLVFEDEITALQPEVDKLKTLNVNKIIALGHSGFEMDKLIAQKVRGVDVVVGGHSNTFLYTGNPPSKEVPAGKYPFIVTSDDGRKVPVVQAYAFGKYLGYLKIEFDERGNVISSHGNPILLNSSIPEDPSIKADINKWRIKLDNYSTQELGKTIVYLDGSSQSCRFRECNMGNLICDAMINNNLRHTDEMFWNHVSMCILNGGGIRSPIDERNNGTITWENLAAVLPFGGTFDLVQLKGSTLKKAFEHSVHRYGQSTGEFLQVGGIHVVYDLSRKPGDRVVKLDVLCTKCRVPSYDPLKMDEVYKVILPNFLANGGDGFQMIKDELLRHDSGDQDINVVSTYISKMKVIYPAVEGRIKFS
Procedure, shortened: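 Residual AMP inhibits luciferase, so luminescence reports CD73 turnover; read with CellTiter-Glo 2.0 plus 1 μM final ATP, 30 min. Reaction used 0.4 nM N-His CD73 (27-549, E. coli), 150 μM AMP, HEPES pH 7.4 with Tween 20, 1 h at room temperature. IC50 fitted by nonlinear regression.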

human CD73 = target: T2, human CD73 (Homo sapiens, UniProt P21589); test: Inhibitor activity against CD73 in cell based assay (CD73 expressing CHO-K1 cells); conditions: CHO-K1 cells expressing human CD73, 150 μM AMP, 4 hours of incubation; read-out: CHO-K1 CELL VARIANT: CD73 IC50
T2 construct: expressed in transfected cells
T2 sequence (P21589 27-549): T1 sequence (P21589 27-549)
Procedure, shortened: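 Residual supernatant AMP was quantified via CellTiter-Glo luminescence (1 μM ATP added, 30 min, room temperature) after a 4 h exposure of human CD73-expressing CHO-K1 cells to 150 μM AMP plus compound, top final 10 μM, 8 points. IC50 came from nonlinear regression of percent inhibition.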

Row | IC50 [1] [µM] | IC50 (human CD73) [µM] | Compound
1 | 0.001 to 10 | 0.001 to 10 | O=C(NC1CCCC1)O[C@H]1CN(c2cn[nH]c(=O)c2Cl)C[C@@H]1F [P-0462, (3S,4S)-1-(5-chloro-6-oxo-1,6-dihydropyridazin-4-yl)-4-fluoropyrrolidin-3-yl cyclopentylcarbamate]
2 | 0.001 to 10 | 0.001 to 10 | O=C(NC1CCC(F)(F)CC1)O[C@H]1CN(c2cn[nH]c(=O)c2Cl)C[C@@H]1F [P-0463, (3S,4S)-1-(5-chloro-6-oxo-1,6-dihydropyridazin-4-yl)-4-fluoropyrrolidin-3-yl (4,4-difluorocyclohexyl)carbamate]
3 | 0.001 to 10 | 0.001 to 10 | O=C(NC1CCC(F)(F)CC1)O[C@H]1CN(c2cnn(CCO)c(=O)c2Cl)C[C@@H]1F [P-0474, (3S,4S)-1-(5-chloro-1-(2-hydroxyethyl)-6-oxo-1,6-dihydropyridazin-4-yl)-4-fluoropyrrolidin-3-yl (4,4-difluorocyclohexyl)carbamate]
4 | 0.001 to 10 | 0.001 to 10 | O=C(NC1CCCC1)O[C@H]1CN(c2cnn(CCO)c(=O)c2Cl)C[C@@H]1F [P-0475, (3S,4S)-1-(5-chloro-1-(2-hydroxyethyl)-6-oxo-1,6-dihydropyridazin-4-yl)-4-fluoropyrrolidin-3-yl cyclopentylcarbamate]
5 | 0.001 to 10 | 0.001 to 10 | O=C(N[C@H]1CC[C@@H](NC2CCC(F)(F)CC2)CC1)O[C@@H]1CCN(c2cn[nH]c(=O)c2Cl)C1 [P-0482, (R)-1-(5-chloro-6-oxo-1,6-dihydropyridazin-4-yl)pyrrolidin-3-yl ((1s,4S)-4-((4,4-difluorocyclohexyl)amino)cyclohexyl)carbamate]
6 | 0.001 to 10 | 0.001 to 10 | N#Cc1c(N2C[C@H](OC(=O)NC3CCC(F)(F)CC3)[C@@H](F)C2)cn[nH]c1=O [P-0483, (3S,4S)-1-(5-cyano-6-oxo-1,6-dihydropyridazin-4-yl)-4-fluoropyrrolidin-3-yl (4,4-difluorocyclohexyl)carbamate]
7 | 0.001 to 10 | 0.001 to 10 | N#Cc1c(N2C[C@H](OC(=O)NC3CCCC3)[C@@H](F)C2)cn[nH]c1=O [P-0484, (3S,4S)-1-(5-cyano-6-oxo-1,6-dihydropyridazin-4-yl)-4-fluoropyrrolidin-3-yl cyclopentylcarbamate]
8 | 0.001 to 10 | 0.001 to 10 | N#Cc1c(N2C[C@H](OC(=O)NC3CCC(F)(F)CC3)[C@@H](F)C2)cnn(CCO)c1=O [P-0485, (3S,4S)-1-(5-cyano-1-(2-hydroxyethyl)-6-oxo-1,6-dihydropyridazin-4-yl)-4-fluoropyrrolidin-3-yl (4,4-difluorocyclohexyl)carbamate]
9 | 0.001 to 10 | 0.001 to 10 | N#Cc1c(N2C[C@H](OC(=O)NC3CCCC3)[C@@H](F)C2)cnn(CCO)c1=O [P-0486, (3S,4S)-1-(5-cyano-1-(2-hydroxyethyl)-6-oxo-1,6-dihydropyridazin-4-yl)-4-fluoropyrrolidin-3-yl cyclopentylcarbamate]

The next lines start with the compound.

Row | Compound | IC50 [1] [µM] | IC50 (human CD73) [µM]
10 | O=C(NC1CCCC1=O)O[C@@H]1CCN(c2cn[nH]c(=O)c2Cl)C1 (stereo partly drawn) [P-0461, (R)-1-(5-chloro-6-oxo-1,6-dihydropyridazin-4-yl)pyrrolidin-3-yl (2-oxocyclopentyl)carbamate] | 0.001 to 10 | 0.001 to 10
11 | O=C(NC1CCN(C(=O)C2(c3ccccc3)CC2)CC1)O[C@@H]1CCN(c2cn[nH]c(=O)c2Cl)C1 [P-0464, (R)-1-(5-chloro-6-oxo-1,6-dihydropyridazin-4-yl)pyrrolidin-3-yl (1-(1-phenylcyclopropane-1-carbonyl)piperidin-4-yl)carbamate] | 0.001 to 10 | 0.001 to 10
12 | O=C(NC1CCN(C(=O)C2(c3cccc(Br)c3)CC2)CC1)O[C@@H]1CCN(c2cn[nH]c(=O)c2Cl)C1 [P-0465, (R)-1-(5-chloro-6-oxo-1,6-dihydropyridazin-4-yl)pyrrolidin-3-yl (1-(1-(3-bromophenyl)cyclopropane-1-carbonyl)piperidin-4-yl)carbamate] | 0.001 to 10 | 0.001 to 10
13 | Cc1noc(C)c1CC(=O)N1CCC(NC(=O)O[C@@H]2CCN(c3cn[nH]c(=O)c3Cl)C2)CC1 [P-0466, (R)-1-(5-chloro-6-oxo-1,6-dihydropyridazin-4-yl)pyrrolidin-3-yl (1-(2-(3,5-dimethylisoxazol-4-yl)acetyl)piperidin-4-yl)carbamate] | 0.001 to 10 | 0.001 to 10
14 | O=C(N[C@@H]1CCC(F)(F)C1)O[C@@H]1CCN(c2cnn(CCO)c(=O)c2Cl)C1 [P-0467, (R)-1-(5-chloro-1-(2-hydroxyethyl)-6-oxo-1,6-dihydropyridazin-4-yl)pyrrolidin-3-yl ((R)-3,3-difluorocyclopentyl)carbamate] | 0.001 to 10 | 0.001 to 10
15 | NCCn1ncc(N2CC[C@@H](OC(=O)N[C@@H]3CCC(F)(F)C3)C2)c(Cl)c1=O [P-0468, (R)-1-(1-(2-aminoethyl)-5-chloro-6-oxo-1,6-dihydropyridazin-4-yl)pyrrolidin-3-yl ((R)-3,3-difluorocyclopentyl)carbamate] | 0.001 to 10 | 0.001 to 10
16 | O=C(N[C@@H]1CCC[C@H]1C(=O)O)O[C@@H]1CCN(c2cn[nH]c(=O)c2Cl)C1 [P-0469, (1R,2R)-2-(((((R)-1-(5-chloro-6-oxo-1,6-dihydropyridazin-4-yl)pyrrolidin-3-yl)oxy)carbonyl)amino) cyclopentane-1-carboxylic acid] | 0.001 to 10 | 0.001 to 10
17 | O=C(N[C@H]1CCC[C@@H]1O)O[C@@H]1CCN(c2cn[nH]c(=O)c2Cl)C1 [P-0471, (R)-1-(5-chloro-6-oxo-1,6-dihydropyridazin-4-yl)pyrrolidin-3-yl ((1S,2S)-2-hydroxycyclopentyl)carbamate] | 0.001 to 10 | 0.001 to 10
18 | CC(C)(C(=O)N1CCC(NC(=O)O[C@@H]2CCN(c3cn[nH]c(=O)c3Cl)C2)CC1)c1ccc(F)cc1 [P-0472, (R)-1-(5-chloro-6-oxo-1,6-dihydropyridazin-4-yl)pyrrolidin-3-yl (1-(2-(4-fluorophenyl)-2-methylpropanoyl)piperidin-4-yl)carbamate] | 0.001 to 10 | 0.001 to 10
19 | N#Cc1c(N2CC[C@@H](OC(=O)NC3CCCCC3)C2)cnn(CCO)c1=O [P-0473, (R)-1-(5-cyano-1-(2-hydroxyethyl)-6-oxo-1,6-dihydropyridazin-4-yl)pyrrolidin-3-yl cyclohexylcarbamate] | 0.001 to 10 | 0.001 to 10
20 | N#CC1(NC(=O)O[C@@H]2CCN(c3cnn(CCO)c(=O)c3Cl)C2)CCCC1 [P-0476, (R)-1-(5-chloro-1-(2-hydroxyethyl)-6-oxo-1,6-dihydropyridazin-4-yl)pyrrolidin-3-yl (1-cyanocyclopentyl)carbamate] | 0.001 to 10 | 0.001 to 10
21 | O=C(N[C@@H]1CCC[C@H]1O)O[C@@H]1CCN(c2cnn(CCO)c(=O)c2Cl)C1 [P-0477, (R)-1-(5-chloro-1-(2-hydroxyethyl)-6-oxo-1,6-dihydropyridazin-4-yl)pyrrolidin-3-yl ((1R,2R)-2-hydroxycyclopentyl)carbamate] | 0.001 to 10 | 0.001 to 10
22 | O=C(N[C@@H]1CCC[C@@H]1C(F)(F)F)O[C@@H]1CCN(c2cnn(CCO)c(=O)c2Cl)C1 [P-0478, (R)-1-(5-chloro-1-(2-hydroxyethyl)-6-oxo-1,6-dihydropyridazin-4-yl)pyrrolidin-3-yl ((1R,2S)-2-(trifluoromethyl)cyclopentyl) carbamate] | 0.001 to 10 | 0.001 to 10
23 | O=C(NC1CCCC(F)(F)C1)O[C@@H]1CCN(c2cnn(CCO)c(=O)c2Cl)C1 (stereo partly drawn) [P-0479, (R)-1-(5-chloro-1-(2-hydroxyethyl)-6-oxo-1,6-dihydropyridazin-4-yl)pyrrolidin-3-yl (3,3-difluorocyclohexyl)carbamate] | 0.001 to 10 | 0.001 to 10
24 | O=C(NC1(C2CC2)CC1)O[C@@H]1CCN(c2cnn(CCO)c(=O)c2Cl)C1 [P-0480, (R)-1-(5-chloro-1-(2-hydroxyethyl)-6-oxo-1,6-dihydropyridazin-4-yl)pyrrolidin-3-yl [1,1′-bi(cyclopropan)]-1-ylcarbamate] | 0.001 to 10 | 0.001 to 10
25 | O=C(N[C@@H]1CCC[C@@H]1O)O[C@@H]1CCN(c2cn[nH]c(=O)c2Cl)C1 [P-0481, (R)-1-(5-chloro-6-oxo-1,6-dihydropyridazin-4-yl)pyrrolidin-3-yl ((1R,2S)-2-hydroxycyclopentyl)carbamate] | 0.001 to 10 | 0.001 to 10
26 | O=C(N[C@H]1CC[C@@H](NC2CCOCC2)CC1)O[C@@H]1CCN(c2cn[nH]c(=O)c2Cl)C1 [P-0487, (R)-1-(5-chloro-6-oxo-1,6-dihydropyridazin-4-yl)pyrrolidin-3-yl ((1s,4S)-4-((tetrahydro-2H-pyran-4-yl)amino)cyclohexyl)carbamate] | 0.001 to 10 | 0.001 to 10
